Data reported in article PMC11950852, “Diversity Scale of Library Matters: Impact of mRNA Library Diversity Scales on the Discovery of Macrocyclic Peptides Targeting a Protein by the RaPID System” (ACS Central Science, 2025).
Where a SMILES comes first, the peptide text is derived from it. Bridges are numbered along the chain shown (N, C = ends). [ ]: non-standard residue; d: D form.

Biological target: Fc-fused MET (His-/hFc-tagged human MET ectodomain) (Homo sapiens, UniProt P08581)
Experiment: SPR binding kinetics of selected macrocyclic peptides to Fc-fused MET
Details: for ka / kd / kd (quoted in text) / Kd: SPR conditions as E1; for kon: pH 7.4, read-out: ka; for Kd: 1:1 binding model

In the case of `C[C@@H]1NC(=O)[C@H](C)NC(=O)[C@H](CC(=O)O)NC(=O)[C@H](Cc2ccc(O)cc2)NC(=O)[C@H](CCC(=O)O)NC(=O)[C@H](CCC(=O)O)NC(=O)[C@H](Cc2c[nH]c3ccccc23)NC(=O)[C@H](CCCNC(=N)N)NC(=O)CNC(=O)[C@H](CC(=O)O)NC(=O)[C@H](Cc2ccccc2)NC(=O)[C@H]([C@@H](C)O)NC(=O)[C@H](Cc2ccc(O)cc2)NC(=O)[C@H](Cc2ccc(O)cc2)NC(=O)[C@H](Cc2c[nH]c3ccccc23)NC(=O)[C@H](Cc2ccc(O)cc2)NC(=O)CSC[C@@H](C(=O)NCC(N)=O)NC1=O` [8-3] ({CH2CO}-YWYYTFDGRWEEYDAACG-NH2; thioether N-17), the “ka” value is reported as 2.33 × 10^5 M^–1 s^–1, the kd is reported as 0.0464 s⁻¹ and the “kd (quoted in text)” value is reported as 46.4 × 10^–3 s^–1. The kon was 233000 M⁻¹ s⁻¹.
Work on `CC(C)C[C@@H]1NC(=O)[C@H](CCCCN)NC(=O)CNC(=O)[C@H](Cc2ccccc2)NC(=O)CNC(=O)[C@H](Cc2ccc(O)cc2)NC(=O)[C@H](C(C)C)NC(=O)[C@H](Cc2c[nH]c3ccccc23)NC(=O)[C@H](Cc2ccc(O)cc2)NC(=O)CSC[C@@H](C(=O)NCC(N)=O)NC(=O)[C@H](Cc2ccccc2)NC(=O)[C@H](C)NC(=O)[C@H](CCCNC(=N)N)NC(=O)[C@H](Cc2c[nH]c3ccccc23)NC(=O)[C@H](CC(=O)O)NC(=O)[C@H](CC(N)=O)NC(=O)[C@H](CC(N)=O)NC1=O` [14-1] ({CH2CO}-YWVYGFGKLNNDWRAFCG-NH2; thioether N-17) yielded a kd of 0.000739 s⁻¹ and a kon of 257000 M⁻¹ s⁻¹.
`CC[C@H](C)[C@@H]1NC(=O)[C@H](Cc2ccc(O)cc2)NC(=O)CSC[C@@H](C(=O)NCC(N)=O)NC(=O)[C@H](CCCNC(=N)N)NC(=O)[C@H](C(C)C)NC(=O)[C@H](Cc2ccc(O)cc2)NC(=O)[C@H](C(C)C)NC(=O)[C@H](Cc2c[nH]c3ccccc23)NC(=O)[C@H](CO)NC(=O)[C@H](CCCCN)NC(=O)[C@H](CO)NC(=O)[C@H](CC(=O)O)NC(=O)[C@H](Cc2ccc(O)cc2)NC(=O)[C@H](C(C)C)NC(=O)[C@H](Cc2ccc(O)cc2)NC(=O)[C@H](Cc2c[nH]c3ccccc23)NC(=O)[C@H](CCC(=O)O)NC1=O` [14-6] ({CH2CO}-YIEWYVYDSKSWVYVRCG-NH2; thioether N-17) was tested, and the kd was 0.00564 s⁻¹ and the kon was 179000 M⁻¹ s⁻¹.
Work on `CC(C)[C@@H]1NC(=O)[C@H](CCC(=O)O)NC(=O)[C@H](Cc2c[nH]cn2)NC(=O)[C@H]([C@@H](C)O)NC(=O)[C@H](CCCNC(=N)N)NC(=O)[C@H](CCCNC(=N)N)NC(=O)[C@H](CC(N)=O)NC(=O)[C@H](Cc2ccccc2)NC(=O)[C@H](CCC(N)=O)NC(=O)[C@H](CCCNC(=N)N)NC(=O)[C@@H](Cc2ccc(O)cc2)NC(=O)CSC[C@@H](C(=O)NCC(N)=O)NC(=O)[C@H](CC(=O)O)NC(=O)[C@H](CCCNC(=N)N)NC(=O)[C@H](CC(N)=O)NC(=O)[C@H](Cc2c[nH]c3ccccc23)NC1=O` [aMD4, reference compound] ({CH2CO}-[dY]RQFNRRTHEVWNRDCG-NH2; thioether N-16) yielded a Kd of 3.67 nM, a kd of 0.00676 s⁻¹ and a kon of 1.84e+06 M⁻¹ s⁻¹.
With `CC(C)[C@@H]1NC(=O)[C@H](CC(N)=O)NC(=O)CNC(=O)[C@H](CO)NC(=O)[C@H](Cc2c[nH]c3ccccc23)NC(=O)[C@H](CO)NC(=O)[C@H](Cc2ccc(O)cc2)NC(=O)[C@H](Cc2ccc(O)cc2)NC(=O)CSC[C@@H](C(=O)NCC(N)=O)NC(=O)[C@H](CO)NC(=O)[C@H](CC(N)=O)NC(=O)[C@H](Cc2c[nH]c3ccccc23)NC(=O)[C@H](CCCCN)NC(=O)[C@H](C(C)C)NC(=O)[C@H](CO)NC(=O)[C@H](CCC(=O)O)NC(=O)[C@H](CO)NC1=O` [12-2] ({CH2CO}-YYSWSGNVSESVKWNSCG-NH2; thioether N-17) the kd was 0.00413 s⁻¹ and the kon was 476000 M⁻¹ s⁻¹.
For `C[C@@H]1NC(=O)CNC(=O)[C@H](Cc2ccc(O)cc2)NC(=O)[C@H](CCC(=O)O)NC(=O)[C@H](CCCCN)NC(=O)[C@H](Cc2c[nH]c3ccccc23)NC(=O)[C@H](CCCNC(=N)N)NC(=O)CNC(=O)[C@H](CC(=O)O)NC(=O)[C@H](Cc2ccccc2)NC(=O)[C@H]([C@@H](C)O)NC(=O)[C@H](Cc2ccc(O)cc2)NC(=O)[C@H](Cc2ccc(O)cc2)NC(=O)[C@H](Cc2c[nH]c3ccccc23)NC(=O)[C@H](Cc2ccc(O)cc2)NC(=O)CSC[C@@H](C(=O)NCC(N)=O)NC(=O)[C@H](C)NC1=O` [8-1] ({CH2CO}-YWYYTFDGRWKEYGAACG-NH2; thioether N-17), the Kd was 31 nM, the “ka” value was 13.8 × 10^5 M^–1 s^–1 and the kd was 0.0427 s⁻¹. The “kd (quoted in text)” value was 42.7 × 10^–3 s^–1 and the kon was 1.38e+06 M⁻¹ s⁻¹.
`CC(C)C[C@@H]1NC(=O)[C@H](CO)NC(=O)[C@H](Cc2c[nH]c3ccccc23)NC(=O)[C@H](CC(N)=O)NC(=O)[C@H](CCCCN)NC(=O)[C@H](CO)NC(=O)[C@H](CC(=O)O)NC(=O)[C@H](Cc2ccccc2)NC(=O)[C@H](CCC(=O)O)NC(=O)[C@H](CO)NC(=O)[C@H](Cc2c[nH]c3ccccc23)NC(=O)[C@H](CO)NC(=O)[C@H](CC(C)C)NC(=O)[C@H](Cc2ccc(O)cc2)NC(=O)CSC[C@@H](C(=O)NCC(N)=O)NC(=O)[C@H](Cc2ccc(O)cc2)NC(=O)[C@H](C)NC1=O` [14-3] ({CH2CO}-YLSWSEFDSKNWSLAYCG-NH2; thioether N-17) was tested, and the kd was 0.00297 s⁻¹ and the kon was 84900 M⁻¹ s⁻¹.
With `CC(C)[C@@H]1NC(=O)[C@H](CCCCN)NC(=O)[C@H](CC(=O)O)NC(=O)CNC(=O)[C@H](CC(=O)O)NC(=O)[C@H](CCCNC(=N)N)NC(=O)CNC(=O)[C@H](CC(N)=O)NC(=O)[C@H](Cc2c[nH]c3ccccc23)NC(=O)[C@H](Cc2c[nH]cn2)NC(=O)[C@H](Cc2ccc(O)cc2)NC(=O)[C@H](Cc2ccc(O)cc2)NC(=O)CSC[C@@H](C(=O)NCC(N)=O)NC(=O)[C@H](C(C)C)NC(=O)[C@H](C(C)C)NC(=O)[C@H](Cc2c[nH]c3ccccc23)NC(=O)[C@H](CCC(=O)O)NC1=O` [8-2] ({CH2CO}-YYHWNGRDGDKVEWVVCG-NH2; thioether N-17) the Kd was 21.6 nM, the kd was 0.0103 s⁻¹ and the “kd (quoted in text)” value was ~10 × 10^–3 s^–1. For the same molecule, the “kd (quoted in text)” value (listed as 8–2) was 10.3 × 10^–3 s^–1, the “fold slower kd than other species of the E8 library” value (other species kd = ∼50 × 10^–3 s^–1) was 5 fold and the kon was 475000 M⁻¹ s⁻¹.
`CC(C)C[C@@H]1NC(=O)[C@H](Cc2ccc(O)cc2)NC(=O)CSC[C@@H](C(=O)NCC(N)=O)NC(=O)[C@H](CC(=O)O)NC(=O)[C@H](C(C)C)NC(=O)[C@H](Cc2ccc(O)cc2)NC(=O)[C@H](C(C)C)NC(=O)[C@H](Cc2c[nH]c3ccccc23)NC(=O)[C@H](CC(=O)O)NC(=O)[C@H](CCCCN)NC(=O)[C@H](CC(N)=O)NC(=O)[C@H](CC(=O)O)NC(=O)[C@H](Cc2ccc(O)cc2)NC(=O)[C@H](CCCCN)NC(=O)[C@H](Cc2c[nH]cn2)NC(=O)[C@H](Cc2c[nH]c3ccccc23)NC(=O)[C@H](CC(C)C)NC1=O` [10-5] ({CH2CO}-YLLWHKYDNKDWVYVDCG-NH2; thioether N-17) gave a kd of 0.00694 s⁻¹ and a kon of 356000 M⁻¹ s⁻¹.
For `CC(C)[C@@H]1NC(=O)[C@H](CO)NC(=O)CNC(=O)[C@H](CO)NC(=O)[C@H](Cc2c[nH]c3ccccc23)NC(=O)[C@H](CO)NC(=O)[C@H](Cc2ccc(O)cc2)NC(=O)[C@H](Cc2ccc(O)cc2)NC(=O)CSC[C@@H](C(=O)NCC(N)=O)NC(=O)[C@H](CO)NC(=O)[C@H](CC(N)=O)NC(=O)[C@H](Cc2c[nH]c3ccccc23)NC(=O)[C@H](CCCCN)NC(=O)[C@H](C(C)C)NC(=O)[C@H](CO)NC(=O)[C@H](CCC(=O)O)NC(=O)[C@H](CO)NC1=O` [10-1] ({CH2CO}-YYSWSGSVSESVKWNSCG-NH2; thioether N-17), the Kd was 10.1 nM, the kd was 0.00878 s⁻¹ and the “kd (quoted in text)” value was ~10 × 10^–3 s^–1. For the same molecule, the kon was 871000 M⁻¹ s⁻¹.
In the case of `CC[C@H](C)[C@@H]1NC(=O)[C@H](C(C)C)NC(=O)[C@H](CO)NC(=O)[C@H](CC(=O)O)NC(=O)[C@H](C(C)C)NC(=O)[C@H](CC(=O)O)NC(=O)[C@H](CCCCN)NC(=O)CNC(=O)[C@H](CO)NC(=O)[C@H](Cc2c[nH]c3ccccc23)NC(=O)[C@H](CO)NC(=O)[C@H](Cc2ccc(O)cc2)NC(=O)[C@H](Cc2ccc(O)cc2)NC(=O)CSC[C@@H](C(=O)NCC(N)=O)NC(=O)[C@H](CC(N)=O)NC(=O)[C@H](CC(N)=O)NC(=O)[C@H](Cc2c[nH]c3ccccc23)NC1=O` [14-2] ({CH2CO}-YYSWSGKDVDSVIWNNCG-NH2; thioether N-17), the kd is reported as 0.00182 s⁻¹ and the kon is reported as 464000 M⁻¹ s⁻¹.
Molecule `CC(C)[C@@H]1NC(=O)[C@H](C)NC(=O)[C@H](CC(=O)O)NC(=O)[C@H](Cc2ccccc2)NC(=O)[C@H](CC(=O)O)NC(=O)[C@H](CCCNC(=N)N)NC(=O)CNC(=O)[C@H]([C@@H](C)O)NC(=O)[C@H](Cc2c[nH]c3ccccc23)NC(=O)[C@H](CO)NC(=O)[C@H](Cc2ccc(O)cc2)NC(=O)[C@H](Cc2ccc(O)cc2)NC(=O)CSC[C@@H](C(=O)NCC(N)=O)NC(=O)[C@H](CCCCN)NC(=O)[C@H](CC(N)=O)NC(=O)[C@H](Cc2c[nH]c3ccccc23)NC(=O)[C@H](CCCCN)NC1=O` [14-4] ({CH2CO}-YYSWTGRDFDAVKWNKCG-NH2; thioether N-17) has a kd of 0.00198 s⁻¹ and a kon of 798000 M⁻¹ s⁻¹.
`CC[C@H](C)[C@@H]1NC(=O)[C@H](CCCCN)NC(=O)[C@@H](NC(=O)[C@H](CCC(=O)O)NC(=O)[C@@H](NC(=O)[C@H](Cc2c[nH]c3ccccc23)NC(=O)[C@H](CC(C)C)NC(=O)[C@@H]2CSCC(=O)N[C@@H](Cc3ccc(O)cc3)C(=O)N[C@@H](CC(N)=O)C(=O)N2)C(C)C)CSSC[C@@H](C(=O)NCC(N)=O)NC(=O)[C@H](CCCNC(=N)N)NC(=O)CNC(=O)[C@H](CC(N)=O)NC(=O)[C@@H]2CCCN2C(=O)[C@H](CC(C)C)NC(=O)[C@H](C(C)C)NC1=O` [12-4] ({CH2CO}-YNCLWVECKIVLPNGRCG-NH2; disulfide 8-17; thioether N-3) was tested, and the kd was 0.00721 s⁻¹, the “kd (quoted in text)” value was 7.21 × 10^–3 s^–1 and the kon was 456000 M⁻¹ s⁻¹.
With `CC(C)C[C@@H]1NC(=O)[C@H](CO)NC(=O)[C@H](Cc2ccccc2)NC(=O)[C@H](Cc2ccc(O)cc2)NC(=O)[C@H](Cc2c[nH]c3ccccc23)NC(=O)[C@H](CCCCN)NC(=O)[C@H](CCCCN)NC(=O)[C@H](CO)NC(=O)[C@H](CC(=O)O)NC(=O)[C@H](Cc2ccc(O)cc2)NC(=O)[C@H](CCC(=O)O)NC(=O)[C@H](Cc2c[nH]cn2)NC(=O)[C@H](Cc2c[nH]c3ccccc23)NC(=O)[C@H](C(C)C)NC(=O)[C@H](CC(C)C)NC(=O)[C@H](Cc2ccc(O)cc2)NC(=O)CSC[C@@H](C(=O)NCC(N)=O)NC1=O` [12-5] ({CH2CO}-YLVWHEYDSKKWYFSLCG-NH2; thioether N-17) the kd was 0.002 s⁻¹ and the kon was 130000 M⁻¹ s⁻¹.
